One experiment concerns MRSA. The experiment can be described thus: cellulitis model, intra-dermal MRSA. It counts as in vivo, SKH1 mice. The note with it: topical formulation for 7 days. The method, then:
SKH1 mice were injected intra-dermally with MRSA (N=15). 5 mice received neutral control topical formulation for 7 days. 5 mice received a topical formulation containing mupirocin for 7 days. 5 mice received a topical formulation containing 5-(2,5-bis(4-chloro-2-isopropylphenyl)thiophen-3-yl)-1H-tetrazole for 7 days. Lesion area was measured each day. After 7 days, terminal colony forming units (CFUs) were measured to determine microbiological efficacy.

The subject of another experiment is MRSA (ATCC #33591). The experiment can be described thus: rabbit ischemic wound model. In kind it is in vivo, New Zealand white rabbits. The method, then: 5-(2,5-bis(4-chloro-2-isopropylphenyl)thiophen-3-yl)-1H-tetrazole was tested for its efficacy against infection in the rabbit ischemic wound model, the gold standard animal model mimicking human DUI. In this model, the ear is made ischemic by division of central and rostral nutrient arteries of New Zealand white rabbits. New Zealand White rabbits were employed for this study and their husbandry and experimental manipulation adhered to standard Guides for the Care and Use of Laboratory Animals (2001). An incision was made to the level of bare cartilage at the base of the ear and followed by injection intradermally with epinephrine to obtain vasoconstriction and aid with skin detachment. Skin is separated from the underlying perichondrium and removed with a 6.0 mm aortic biopsy punch. Food and water were given ad libidum and animals were acclimatized for 7 days with photoperiods of alternating 12 h light and dark provided, along with analgesic (BUPRENEX™ (buprenorphine) 0.02 mg/kg sc) and anaesthesia (isoflurane (0.5-5% with oxygen carrier 0.5-2 L/min) during procedures.
An ischemia wound healing model was conducted surgically. Each wound was inoculated with 50 μl of 2×10^7 CFU/ml MRSA (ATCC #33591) and dressed. After one day, wounds were treated with either 50 μl control cream containing vehicle (N=4), 50 μl containing mupirocin (N=4), or 50 μl cream containing 5-(2,5-bis(4-chloro-2-isopropylphenyl)thiophen-3-yl)-1H-tetrazole (N=8) daily. Clinical observations were performed on days 1, 3, 5, 7, 10 and 14. Wounds were assessed and observations recorded using the Draize scoring system. Digital photographs of each wound were obtained and documented.
On day 14 post-wounding, under anesthesia, the animals were euthanized with an intravenous injection of BEUTHANASIA-D™ ([…] and phenytoin sodium) at a dosage of 150 mg/kg of body weight. Specimens including the entire wound, along with approximately 2-3 mm of the normal unwounded skin margins were harvested. Each ear wound specimen was sectioned into halves. For one half of the wound, the wound was placed into a container with 10% neutral buffered formalin and processed for routine histological evaluation. Wound organization was scored for four parameters on a scale of 0-4 at the wound site for inflammation, granulation, angiogenesis, and epithelialization. Wounds were characterized in a blinded manner by a board certified member of the College of American Pathologists. The other half of the wound was weighed (mg) in a sterile Petri dish, then placed in a sterile disposable tissue grinder and homogenized for quantitative microbiology. The tube containing the ground tissue sample was filled with 5 ml 0.85% sterile saline. Five 1:10 serial dilutions were then prepared with 0.5 ml aliquots and 4.5 ml of sterile saline per aliquot. Subsequently, 0.1 ml of the homogenate and each dilution was drop plated on trypticase soy agar and placed in an incubator at 37° C. The number of viable organisms per wound was recorded as cfu/gram of tissue.

The test system of experiment [1] is mupirocin resistant strains of S. epidermidis. The experiment can be described thus: activity against mupirocin resistant strains. In kind it is cell-based.
The test system of the next experiment is Clostridium spp. The experiment can be described thus: activity against Clostridium spp. It counts as cell-based.
The test system of experiment [2] is S. aureus MRSA MISA MU3 NRS2. The experiment can be described thus: broth microdilution MIC (CLSI). In kind it is cell-based. The note with it: Staphylococcus aureus; S. aureus MRSA MISA MU3 NRS2; read-out: Antibacterial activity (MIC). The method, then:
(§1) Using a broth microdilution assay according to Clinical Laboratory Standards Institute (CSLI) guidelines, we tested 5-(2,5-bis(4-chloro-2-isopropylphenyl)thiophen-3-yl)-1H-tetrazole (“Test Article” in below table) to establish MICs against a broad range of MDR bacteria and noted substantive activity versus methicillin-resistant Staphylococcus aureus (MRSA), vancomycin-resistant Enterococcus (VRE) and Streptococcus spp. Antimicrobial susceptibility testing was performed by a microdilution broth assay according to CLSI guidelines. The inoculum was prepared from stationary-phase cultures diluted in water. Microtiter plate wells received aliquots of 100 μL of the compound diluted in Mueller-Hinton II cation adjusted media. The final concentration of compound typically ranged from 250 to 0.125 μg/ml in serial two-fold dilutions. In addition to the test compound, growth and sterility controls were included, along with DMSO vehicle control rows. The microtiter plates were inoculated with 5×10^5 bacteria and incubated overnight at 35° C. in a humidified atmosphere.
(Broth dilution looks for growth in wells or tubes with falling amounts of substance.)

A further experiment has as its system S. aureus MRSA ATCC43300. The experiment can be described thus: broth microdilution MIC (CLSI). It counts as cell-based. The note with it: Staphylococcus aureus; S. aureus MRSA ATCC43300; read-out: Antibacterial activity (MIC). The method, then:
as §1

In experiment [3] the test system is S. aureus MRSA clinical isolate from Manchester. Briefly: broth microdilution MIC (CLSI). In kind it is cell-based. The following applies: Staphylococcus aureus; S. aureus MRSA clinical isolate from Manchester; read-out: Antibacterial activity (MIC). The method, then:
as §1

Experiment [4] concerns E. faecium ATCC51299 vancomycin resistant. Briefly: broth microdilution MIC (CLSI). In kind it is cell-based. The following applies: Enterococcus faecium, read-out: Antibacterial activity (MIC). The method, then: as §1
The subject of experiment [5] is S. aureus MRSA clinical isolate ciprofloxacin resistant. Briefly: broth microdilution MIC (CLSI). It counts as cell-based. The note with it: Staphylococcus aureus; S. aureus MRSA clinical isolate ciprofloxacin resistant; read-out: Antibacterial activity (MIC). The method, then:
as §1

For experiment [6], the system named is S. aureus MRSA USA300 epidemic strain. Briefly: broth microdilution MIC (CLSI). In kind it is cell-based. The note with it: Staphylococcus aureus; S. aureus MRSA USA300 epidemic strain; read-out: Antibacterial activity (MIC). The method, then: as §1
Experiment [7] has as its system S. aureus MRSA clinical isolate penicillin and erythromycin resistant. The experiment can be described thus: broth microdilution MIC (CLSI). In kind it is cell-based. The note with it: Staphylococcus aureus; S. aureus MRSA clinical isolate penicillin and erythromycin resistant; read-out: Antibacterial activity (MIC). The method, then:
as §1

Experiment [8] concerns S. aureus MRSA MISA MU50 NRS1. The experiment can be described thus: broth microdilution MIC (CLSI). It counts as cell-based. The note with it: Staphylococcus aureus; S. aureus MRSA MISA MU50 NRS1; read-out: Antibacterial activity (MIC). The method, then: as §1
[9] abbreviates: topical daily, day 14, compared to the control.

For orientation: MIC means the lowest concentration found to suppress growth.

Converted amounts (≈) assume the structure as drawn. Bounds are passed on as bounds.

As for `CC(C)c1cc(Cl)ccc1-c1cc(-c2nnn[nH]2)c(-c2ccc(Cl)cc2C(C)C)s1` [Test Article, 5-(2,5-bis(4-chloro-2-isopropylphenyl)thiophen-3-yl)-1H-tetrazole], the “terminal CFU count” value in the experiment on MRSA (FIG. 2A) is recorded as “significantly reduce”. Moreover, the lesion area result with MRSA (FIG. 2B) is recorded as “significantly reduce”. The “percent wound contraction over time (FIG. 1)” value in the experiment with MRSA (ATCC #33591) (topical daily to day 14, p<0.001 vs control, p<0.03 vs mupirocin) is listed as “better than the mupirocin treated group”. Further, in the experiment on MRSA (ATCC #33591) (topical daily, Draize scoring), the “effect on erythema and edema” value is reported as “positive effect”. In the experiment with MRSA (ATCC #33591) (setting [9]), this compound yielded a CFU drop of 4 log. Also, in the experiment with MRSA (ATCC #33591) (setting [9]), the “reduction in bacterial survival” value is on record as more than 99%. Also, the “wound healing and epithelialization” value in the experiment on MRSA (ATCC #33591) (topical daily, versus mupirocin group) was “significantly better than the mupirocin group”. In addition, the activity entry (in experiment [1]; in the experiment on Clostridium spp.) was “retained activity” each time. Besides, the MIC in experiment [2] worked out at 1 µg/mL (≈ 2.19 µM); in the experiment on S. aureus MRSA ATCC43300, 0.5 µg/mL (≈ 1.09 µM); in experiment [3] it was 0.5 µg/mL (≈ 1.09 µM); in [4], 1 µg/mL (≈ 2.19 µM); in experiment [5], 1 µg/mL (≈ 2.19 µM); in [6], 0.5 µg/mL (≈ 1.09 µM). Moreover, the MIC in experiment [7] and in experiment [8] was 0.5 µg/mL (≈ 1.09 µM) each time.

Source of the values: patent publication US12358902B2, “5-(2,5-bis(4-chloro-2-isopropylphenyl)thiophen-3-yl)-1H-tetrazole for the topical treatment of bacterial infections” (DENOVAMED INC., priority 2017, dated 2025).
